“And” between values parts separate entries of the source, which are not always exact repeats. Equal values may be shown once. Where a name gives a salt, the structure may show the parent alone.
Tests used:
Adult male Wistar rats [1] = assay: Tail-flick latency; assay type: in vivo, rat; settings: for decrease in potency when moving from i.p. to p.o. route of administration: analgesia, i.p. vs p.o.; for peak analgesia: tail-flick
brain CYP2D [2] = settings: seven-day subcutaneous nicotine; ref McMillan and Tyndale, 2015; cited from earlier work
brain CYP2D [3] = settings: seven-day subcutaneous nicotine; ref McMillan and Tyndale, 2015; cited from earlier work; remark: listed apart in the source
brain CYP2D [4] = settings: 24 hr i.c.v. propranolol pretreatment, pilot study
brain CYP2D [5] = settings: 24 hr i.c.v. propranolol pretreatment, pilot microdialysis study, tramadol p.o.
[6] = oral tramadol; ref Nobilis et al., 2002, Ong et al., 2005; cited from earlier work
Adult male Wistar rats [7] = settings: tramadol 40 mg/kg i.p.; ref Wang et al., 2015; cited from earlier work

Compound: COc1ccc2c3c1O[C@H]1[C@@H](O)C=C[C@H]4[C@@H](C2)N(C)CC[C@@]341 [codeine]
- decrease in potency when moving from i.p. to p.o. route of administration (Adult male Wistar rats [1]): 2.5 – 10 fold

Compound: CN1CC[C@]23c4c5ccc(O)c4O[C@H]2[C@@H](O)C=C[C@H]3[C@H]1C5 [morphine]
- decrease in potency when moving from i.p. to p.o. route of administration (Adult male Wistar rats [1]): 2.5 – 10 fold

Compound: CN1CCC[C@H]1c1cccnc1 [nicotine]
- increase in codeine-induced antinociception, tail-flick reflex AUC0–30 min (brain CYP2D [2]): 1.6 fold
- increase in codeine-induced antinociception, hot-plate test AUC (brain CYP2D [3]): 2.5 fold

Compound: CC(C)NCC(O)COc1cccc2ccccc12 (stereo not drawn) [propranolol, Propranolol hydrochloride]
- effect on analgesia after tramadol p.o. (brain CYP2D [4]): increase in analgesia
- effect on brain levels of tramadol, ODSMT and NDSMT (brain CYP2D [5]): increased

Compound: COc1cccc(C2(O)CCCCC2CN(C)C)c1 (stereo not drawn) [tramadol, Tramadol hydrochloride]
- fraction of a tramadol dose undergoing first-pass metabolism [6]: 30%
- decrease in potency when moving from i.p. to p.o. route of administration (Adult male Wistar rats [1]): 2.5 – 10 fold and 2.5 fold
- overall analgesic response, AUC 0–60 min (Adult male Wistar rats [1]; tramadol 40 mg/kg i.p.): 2840 %MPE*min
- time to peak analgesia (Adult male Wistar rats [1]; tramadol 40 mg/kg i.p.): 50 min post-injection
- peak analgesia (Adult male Wistar rats [1]; tramadol 40 mg/kg i.p.): 65 % MPE
- peak analgesia (Adult male Wistar rats [1]; tramadol 100 mg/kg p.o.): 74 % MPE
- overall analgesic response, AUC 0–60 min (published) (Adult male Wistar rats [7]): 1740 %MPE*min
- peak analgesia (published) (Adult male Wistar rats [7]): approximately 52 % MPE
- time to peak analgesia (published) (Adult male Wistar rats [7]): 45 min post-injection
